According to ChEMBL document CHEMBL1201862, “PubChem BioAssay data set” (2004):
Calls of active or inactive are those of the source.

Experiments:
[1] = biological target: T1, Endoribonuclease toxin MazF (Escherichia coli K-12, UniProt P0AE70); test: substrate-only fluorescence increase artefacts – biochemical, single-stranded RNase substrate, counter-screen for MazEF activator project, dose response (AID 588502); format: functional
T1 sequence (P0AE70 whole entry): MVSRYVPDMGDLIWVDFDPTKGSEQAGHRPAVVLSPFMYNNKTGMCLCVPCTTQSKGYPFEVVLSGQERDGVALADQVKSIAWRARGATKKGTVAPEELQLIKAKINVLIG

[2] = biological target: T1, Endoribonuclease toxin MazF; test: activation of MazEF endoribonuclease cleavage – biochemical, fluorescence, single-stranded RNA substrate, uHTS hits, dose response (AID 588481); format: functional
MEF = test: SAR analysis of small molecule cytotoxicity of MazEF TA System activators in embryonic fibroblast (MEF) cells. [Related pubchem assays (depositor defined):AID504720, AID504743]; format: functional; details: Mus musculus
[3] = biological target: T1, Endoribonuclease toxin MazF; test: MazEF toxin-antitoxin RNase activation – biochemical, fluorescence, single-stranded RNA substrate, SAR follow-up (AID 588603); format: functional
[4] = biological target: T1, Endoribonuclease toxin MazF; test: SAR analysis of small molecule activators of the MazEF TA System via a fluorescence-based single-stranded RNase assay counterscreen. [Related pubchem assays (depositor defined):AID504720, AID504743]; format: functional
[5] = biological target: T2, Apoptotic protease-activating factor 1 (Homo sapiens, UniProt O14727); format: functional
T2 sequence (O14727 whole entry): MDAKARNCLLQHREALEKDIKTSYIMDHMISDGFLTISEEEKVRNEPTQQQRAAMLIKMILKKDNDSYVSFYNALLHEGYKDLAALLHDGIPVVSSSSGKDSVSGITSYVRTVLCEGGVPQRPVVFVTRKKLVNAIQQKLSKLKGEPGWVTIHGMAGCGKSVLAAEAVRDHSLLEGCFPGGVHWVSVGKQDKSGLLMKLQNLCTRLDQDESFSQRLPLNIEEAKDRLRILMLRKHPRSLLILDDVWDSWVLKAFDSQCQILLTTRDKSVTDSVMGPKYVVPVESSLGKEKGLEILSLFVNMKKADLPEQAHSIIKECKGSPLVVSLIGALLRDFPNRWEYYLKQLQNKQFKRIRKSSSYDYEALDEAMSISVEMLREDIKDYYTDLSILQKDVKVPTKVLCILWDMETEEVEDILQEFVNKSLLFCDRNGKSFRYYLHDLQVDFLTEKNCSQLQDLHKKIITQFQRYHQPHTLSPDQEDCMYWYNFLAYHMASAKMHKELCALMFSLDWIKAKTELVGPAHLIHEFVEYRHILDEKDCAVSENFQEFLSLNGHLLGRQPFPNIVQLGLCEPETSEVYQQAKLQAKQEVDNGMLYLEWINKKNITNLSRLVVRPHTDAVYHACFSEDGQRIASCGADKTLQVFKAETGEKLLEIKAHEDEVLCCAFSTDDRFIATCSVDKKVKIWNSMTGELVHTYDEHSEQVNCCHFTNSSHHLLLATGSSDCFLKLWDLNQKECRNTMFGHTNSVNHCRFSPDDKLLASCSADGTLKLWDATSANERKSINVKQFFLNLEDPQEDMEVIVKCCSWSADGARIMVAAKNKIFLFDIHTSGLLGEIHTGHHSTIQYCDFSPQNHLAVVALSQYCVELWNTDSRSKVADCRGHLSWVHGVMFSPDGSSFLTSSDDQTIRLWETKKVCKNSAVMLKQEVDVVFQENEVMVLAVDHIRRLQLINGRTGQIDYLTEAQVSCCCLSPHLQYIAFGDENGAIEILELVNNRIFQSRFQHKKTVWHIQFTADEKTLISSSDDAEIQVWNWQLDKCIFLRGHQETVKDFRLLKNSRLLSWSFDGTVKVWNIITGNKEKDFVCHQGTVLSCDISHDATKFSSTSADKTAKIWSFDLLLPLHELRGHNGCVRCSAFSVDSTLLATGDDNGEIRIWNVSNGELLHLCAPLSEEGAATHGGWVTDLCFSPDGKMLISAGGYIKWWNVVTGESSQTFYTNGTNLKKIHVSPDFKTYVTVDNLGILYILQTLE

[6] = biological target: T3, Microphthalmia-associated transcription factor (Homo sapiens, UniProt O75030); test: reducers of TRPM1 reporter luminescence, concentration series – cell-based, SK-MEL-5, cherry-picked, set 3, MITF inhibitor project, dose response (AID 493073); format: functional;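 note: SK-MEL-5 melanoma cells with luciferase driven by the MITF target TRPM1 promoter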
T3 sequence (O75030 whole entry): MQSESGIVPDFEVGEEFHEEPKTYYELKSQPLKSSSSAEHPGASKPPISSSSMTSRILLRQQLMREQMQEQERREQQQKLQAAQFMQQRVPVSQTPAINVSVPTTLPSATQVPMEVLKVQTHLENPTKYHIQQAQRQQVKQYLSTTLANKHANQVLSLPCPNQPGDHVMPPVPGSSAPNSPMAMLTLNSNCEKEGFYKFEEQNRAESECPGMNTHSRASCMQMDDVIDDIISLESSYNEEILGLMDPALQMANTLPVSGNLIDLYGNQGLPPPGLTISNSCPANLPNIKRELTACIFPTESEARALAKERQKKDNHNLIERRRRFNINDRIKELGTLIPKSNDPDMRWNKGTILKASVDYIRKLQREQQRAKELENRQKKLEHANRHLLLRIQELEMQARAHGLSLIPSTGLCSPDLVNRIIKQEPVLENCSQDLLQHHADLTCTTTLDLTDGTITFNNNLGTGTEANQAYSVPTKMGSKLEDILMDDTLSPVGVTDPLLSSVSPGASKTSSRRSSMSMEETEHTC

[7] = fluconazole-exposed Candida albicans growth modulators – fluorescence, retest, confirmation (AID 2467); format: functional, cell-based
[8] = biological target: Eukaryotic translation initiation factor 4E (Mus musculus, UniProt P63073); test: blockers of eIF4G binding by eIF4E – biochemical, TR-FRET, dose response (AID 855); format: functional;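 note: potency for disrupting eIF4E binding to eIF4GI seen as loss of FRET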
[9] = NIH-3T3 fibroblast cytotoxicity, dose response, cytotoxicity control, cell-based, fluorescence, Alamar Blue, secondary assay (AID 2327); format: functional;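 note: NIH-3T3 mouse fibroblasts cultured with fluconazole at 8 µg/mL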
HEK293 [10] = test: EBV LMP1 TES2 canonical NF-kB signalling blockers – cell-based, HEK293, luciferase, cherry-pick, dose response (AID 588343); format: functional; details: Homo sapiens
[11] = biological target: Latent membrane protein 1 (Human herpesvirus 4 (strain B95-8), UniProt P03230); test: LMP1 TES1 pathway selectivity over dsRED control – imaging, HEK293T, dual-color eGFP/dsRED, cherry-picks, selectivity assay for LMP1 NF-kB inhibitor project, dose response (AID 588398); format: functional, cell-based
[12] = biological target: T4, Histone-lysine N-methyltransferase NSD2 (Homo sapiens, UniProt O96028); format: biochemical
T4 sequence (O96028 whole entry): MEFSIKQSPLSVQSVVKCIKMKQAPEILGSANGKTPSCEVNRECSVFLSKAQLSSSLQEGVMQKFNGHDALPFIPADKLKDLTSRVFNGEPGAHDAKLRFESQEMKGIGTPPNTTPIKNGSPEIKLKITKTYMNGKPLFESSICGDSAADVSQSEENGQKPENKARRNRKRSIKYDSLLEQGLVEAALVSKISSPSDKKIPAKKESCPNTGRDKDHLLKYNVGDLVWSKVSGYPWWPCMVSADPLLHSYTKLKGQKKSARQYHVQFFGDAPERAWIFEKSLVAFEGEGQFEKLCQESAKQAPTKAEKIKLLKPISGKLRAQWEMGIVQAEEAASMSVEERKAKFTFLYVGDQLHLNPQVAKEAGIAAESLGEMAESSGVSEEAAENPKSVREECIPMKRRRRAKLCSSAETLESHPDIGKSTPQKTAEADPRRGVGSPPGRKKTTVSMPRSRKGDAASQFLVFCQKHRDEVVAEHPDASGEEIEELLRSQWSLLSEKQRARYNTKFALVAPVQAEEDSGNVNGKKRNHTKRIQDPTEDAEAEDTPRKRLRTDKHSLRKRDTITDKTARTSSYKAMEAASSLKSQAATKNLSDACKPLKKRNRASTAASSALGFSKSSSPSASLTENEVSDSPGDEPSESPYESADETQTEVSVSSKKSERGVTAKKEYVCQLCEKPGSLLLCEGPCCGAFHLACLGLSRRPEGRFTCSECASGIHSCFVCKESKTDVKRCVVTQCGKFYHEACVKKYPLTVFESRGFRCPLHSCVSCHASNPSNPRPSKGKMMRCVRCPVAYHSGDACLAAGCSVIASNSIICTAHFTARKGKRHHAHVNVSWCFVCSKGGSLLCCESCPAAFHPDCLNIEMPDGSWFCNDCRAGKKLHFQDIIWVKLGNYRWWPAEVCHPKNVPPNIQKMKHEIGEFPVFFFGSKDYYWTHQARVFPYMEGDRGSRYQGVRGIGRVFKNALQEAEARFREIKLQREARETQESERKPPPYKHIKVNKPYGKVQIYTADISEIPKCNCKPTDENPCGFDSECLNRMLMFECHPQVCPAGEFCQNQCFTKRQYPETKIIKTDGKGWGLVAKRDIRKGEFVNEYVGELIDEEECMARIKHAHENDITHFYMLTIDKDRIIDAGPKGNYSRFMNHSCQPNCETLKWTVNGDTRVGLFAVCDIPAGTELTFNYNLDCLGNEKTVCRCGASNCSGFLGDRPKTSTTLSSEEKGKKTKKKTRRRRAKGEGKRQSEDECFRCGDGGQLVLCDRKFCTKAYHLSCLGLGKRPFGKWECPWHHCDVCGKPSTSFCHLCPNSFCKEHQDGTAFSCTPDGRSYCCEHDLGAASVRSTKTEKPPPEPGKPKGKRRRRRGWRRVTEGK

Beta-galactosidase = Beta-galactosidase (Escherichia coli, UniProt Q8VNN2); test: PubChem AID 485352; format: functional
[13] = biological target: Lysine-specific demethylase 4C (Homo sapiens, UniProt Q9H3R0); test: inhibition of JMJD2C H3K9me3 demethylation – biochemical, DELFIA europium, cherry-picked samples, dose response (AID 488835); format: functional
[14] = biological target: T5, Type-1 angiotensin II receptor (Homo sapiens, UniProt P30556); test: antagonism of angiotensin II type 1 receptor – cell-based, uHTS hits, selectivity assay for APJ receptor antagonist project, dose response (AID 463214); format: functional;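 note: antagonist potency against angiotensin II stimulated AT1 response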
T5 sequence (P30556 whole entry): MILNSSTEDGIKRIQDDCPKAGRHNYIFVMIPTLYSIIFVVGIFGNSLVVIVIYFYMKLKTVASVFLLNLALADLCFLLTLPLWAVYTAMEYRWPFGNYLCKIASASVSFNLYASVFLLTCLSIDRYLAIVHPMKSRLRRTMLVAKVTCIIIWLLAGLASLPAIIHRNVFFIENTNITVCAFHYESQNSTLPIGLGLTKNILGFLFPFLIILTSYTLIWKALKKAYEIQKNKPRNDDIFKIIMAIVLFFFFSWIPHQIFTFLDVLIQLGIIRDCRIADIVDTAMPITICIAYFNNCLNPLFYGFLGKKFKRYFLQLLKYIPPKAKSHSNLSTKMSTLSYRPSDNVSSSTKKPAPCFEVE

[15] = loss of viability in HepG2 cells – cell-based, CellTiter-Glo, cherry-picked, cytotoxicity control for Shn3 inhibitor project, dose response (AID 624134); format: functional
[16] = non-specific 3'UTR reporter inhibition in Clone20-Shn3RL – cell-based, Renilla luciferase, cherry-picked, counter-screen for Shn3 inhibitor project, dose response (AID 624133); format: functional
HEK293 [17] = test: SAR Analysis of small molecule inhibitors of T-cell specific antigen receptor-induced NF-kB activation in a HEK-293T cell line using a luminescence assay - Set 2. [Related pubchem assays (depositor defined):AID435003, AID435012, AID489026]; format: functional, cell-based; details: Homo sapiens
[18] = reduction of Shn3 3'UTR-driven luciferase in osteoblasts – cell-based, Clone20 osteoblasts, firefly luciferase, cherry-picked, dose response (AID 624132); format: functional;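 note: firefly luciferase luminescence from reporter carrying the Shn3 3'UTR in osteoblasts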
HEK293 [19] = test: HEK293T cell viability loss, resazurin readout – resazurin fluorescence, cytotoxicity control for NF-kB activator project, SAR follow-up (AID 493251); format: functional, cell-based; details: Homo sapiens
Jurkat = test: SAR Analysis of small molecule inhibitors of T-cell specific antigen receptor-induced NF-kB activation in a Jurkat cell line using a luminescence assay - Set 2. [Related pubchem assays (depositor defined):AID435003, AID435012, AID465]; format: functional, cell-based; details: Homo sapiens

Latent membrane protein 1, sequence (P03230 whole entry): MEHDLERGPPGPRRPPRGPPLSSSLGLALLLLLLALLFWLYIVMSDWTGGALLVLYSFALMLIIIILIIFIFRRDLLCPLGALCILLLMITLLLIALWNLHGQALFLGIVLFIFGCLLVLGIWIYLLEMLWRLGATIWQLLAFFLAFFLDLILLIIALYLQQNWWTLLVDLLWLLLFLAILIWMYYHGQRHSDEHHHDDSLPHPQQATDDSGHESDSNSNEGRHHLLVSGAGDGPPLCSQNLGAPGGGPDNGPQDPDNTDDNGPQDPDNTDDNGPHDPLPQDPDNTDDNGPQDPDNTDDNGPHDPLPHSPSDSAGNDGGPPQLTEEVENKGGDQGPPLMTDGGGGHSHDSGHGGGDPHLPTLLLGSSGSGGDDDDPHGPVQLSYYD
Beta-galactosidase, sequence (Q8VNN2 whole entry): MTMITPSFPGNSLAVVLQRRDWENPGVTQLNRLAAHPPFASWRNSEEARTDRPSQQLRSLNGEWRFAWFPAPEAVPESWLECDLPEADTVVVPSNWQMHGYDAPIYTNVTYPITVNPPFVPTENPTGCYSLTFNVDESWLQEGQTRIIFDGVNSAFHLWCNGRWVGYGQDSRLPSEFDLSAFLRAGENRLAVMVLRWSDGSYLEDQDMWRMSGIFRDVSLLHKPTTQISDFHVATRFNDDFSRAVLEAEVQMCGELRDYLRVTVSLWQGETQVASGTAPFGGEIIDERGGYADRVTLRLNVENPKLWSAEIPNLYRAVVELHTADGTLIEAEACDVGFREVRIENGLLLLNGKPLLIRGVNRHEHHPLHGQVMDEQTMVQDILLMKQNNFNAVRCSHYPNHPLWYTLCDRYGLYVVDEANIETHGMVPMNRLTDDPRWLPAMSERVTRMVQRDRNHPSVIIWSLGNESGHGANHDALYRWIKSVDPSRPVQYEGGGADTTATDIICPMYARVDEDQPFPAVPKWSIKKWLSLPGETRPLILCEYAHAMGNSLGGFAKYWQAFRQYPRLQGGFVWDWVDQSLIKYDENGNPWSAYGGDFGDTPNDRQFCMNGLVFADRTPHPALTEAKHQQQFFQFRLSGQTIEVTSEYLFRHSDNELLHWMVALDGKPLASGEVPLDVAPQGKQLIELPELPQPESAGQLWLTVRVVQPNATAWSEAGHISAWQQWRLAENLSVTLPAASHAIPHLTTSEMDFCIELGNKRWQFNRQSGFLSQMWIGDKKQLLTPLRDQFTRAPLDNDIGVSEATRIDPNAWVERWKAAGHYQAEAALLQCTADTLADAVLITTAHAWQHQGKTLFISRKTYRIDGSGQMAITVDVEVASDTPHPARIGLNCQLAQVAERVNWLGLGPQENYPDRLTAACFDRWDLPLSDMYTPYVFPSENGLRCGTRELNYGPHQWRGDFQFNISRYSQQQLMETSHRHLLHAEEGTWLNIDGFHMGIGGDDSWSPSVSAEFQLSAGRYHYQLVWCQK
Lysine-specific demethylase 4C, sequence (Q9H3R0 whole entry): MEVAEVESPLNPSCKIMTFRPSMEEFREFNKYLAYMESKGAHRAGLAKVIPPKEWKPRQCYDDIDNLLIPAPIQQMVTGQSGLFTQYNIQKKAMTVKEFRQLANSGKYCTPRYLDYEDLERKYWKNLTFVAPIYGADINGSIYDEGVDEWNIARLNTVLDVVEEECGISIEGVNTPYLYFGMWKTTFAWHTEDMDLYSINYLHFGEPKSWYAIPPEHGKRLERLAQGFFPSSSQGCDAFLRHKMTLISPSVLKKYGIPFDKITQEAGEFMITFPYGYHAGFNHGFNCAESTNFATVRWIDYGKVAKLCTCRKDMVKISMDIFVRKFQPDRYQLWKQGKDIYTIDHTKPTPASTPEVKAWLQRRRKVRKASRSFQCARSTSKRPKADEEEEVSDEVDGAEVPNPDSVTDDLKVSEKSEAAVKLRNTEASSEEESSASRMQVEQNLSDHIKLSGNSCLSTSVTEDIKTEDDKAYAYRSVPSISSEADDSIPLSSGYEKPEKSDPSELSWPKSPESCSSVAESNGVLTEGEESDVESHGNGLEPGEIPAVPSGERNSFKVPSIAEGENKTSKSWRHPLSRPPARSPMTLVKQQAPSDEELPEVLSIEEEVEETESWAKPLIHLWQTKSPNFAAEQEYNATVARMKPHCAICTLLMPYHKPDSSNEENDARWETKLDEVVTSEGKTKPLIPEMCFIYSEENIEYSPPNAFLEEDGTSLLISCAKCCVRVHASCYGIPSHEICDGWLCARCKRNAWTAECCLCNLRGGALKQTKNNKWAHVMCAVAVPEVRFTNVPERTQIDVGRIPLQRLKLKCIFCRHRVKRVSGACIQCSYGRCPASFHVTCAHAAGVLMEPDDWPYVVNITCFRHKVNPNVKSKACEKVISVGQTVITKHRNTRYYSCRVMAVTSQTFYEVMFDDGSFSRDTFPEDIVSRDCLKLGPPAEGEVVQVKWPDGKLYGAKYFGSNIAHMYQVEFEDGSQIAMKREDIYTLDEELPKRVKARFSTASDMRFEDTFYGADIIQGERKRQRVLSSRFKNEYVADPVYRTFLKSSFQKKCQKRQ
Eukaryotic translation initiation factor 4E, sequence (P63073 whole entry): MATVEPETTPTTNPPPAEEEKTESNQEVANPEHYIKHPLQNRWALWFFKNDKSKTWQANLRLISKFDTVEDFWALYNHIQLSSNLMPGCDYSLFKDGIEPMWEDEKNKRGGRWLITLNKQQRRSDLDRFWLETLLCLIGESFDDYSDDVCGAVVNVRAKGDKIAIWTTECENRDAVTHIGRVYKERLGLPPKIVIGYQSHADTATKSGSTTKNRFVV

With `N#Cc1cc2ccccc2nc1SCC(=O)Nc1ccccc1N1CCOCC1` the EC50 [1] was > 99 µM (inactive), the EC50 [2] was 17.5 µM (active) and the CC50 (MEF) was > 99 µM (inactive). For the same molecule, the EC50 [3] was 5.15 µM (active) and the EC50 [4] was > 99 µM (inactive).

For `NC(=O)C1CCN(C2=C(NS(=O)(=O)c3ccc(Br)cc3)C(=O)c3ccccc3C2=O)CC1`, the IC50 [5] was 16.9 µM (active) and the AC50 [6] was 11.9 µM (active).

For `COc1cc(C(=O)Oc2cc(N)n(S(=O)(=O)c3ccc(F)cc3)n2)cc(OC)c1OC`, the EC50 [1] was > 99 µM (inactive), the EC50 [2] was 14.8 µM (active) and the CC50 (MEF) was 85.3 µM (active). The EC50 [3] was 3.48 µM (active) and the EC50 [4] was > 99 µM (inactive).

With `Cn1cccc1-c1cc(C(=O)N2CCc3c([nH]c4ccccc34)C2c2ccccn2)[nH]n1` (stereo not given) the EC50 [7] was 2.76 µM (active), the IC50 [8] was 50 µM (inactive) and the EC50 [9] was 21.3 µM (active). The AC50 (HEK293 [10]) was 25.8 µM (active) and the AC50 [11] was 21.6 µM (active).

In the case of `C=CCN(CC=C)Cc1c(O)ccc2c1oc(=O)c1ccccc12`, the IC50 [5] was 60.3 µM (active), the AC50 [12] was 4.02 µM (active) and the EC50 (Beta-galactosidase) was > 40 µM (inactive). For the same molecule, the AC50 [13] was 0.48 µM (active) and the IC50 [14] was > 40 µM (not active).

With `CCCCC(=O)NC(c1ccc(OC)cc1)c1ccc2cccnc2c1O` (stereo not given) the AC50 [15] was 5.14 µM (active), the AC50 [16] was 8.8 µM (active) and the IC50 (HEK293 [17]) was 5.25 µM (active). For the same molecule, the AC50 [18] was 2.28 µM (active), the IC50 (HEK293 [19]) was 21.7 µM (inactive) and the AC50 (HEK293 [10]) was 15.8 µM (active). For the same molecule, the AC50 [11] was 11.6 µM (active) and the IC50 (Jurkat) was 3.22 µM (active).
